By EC50 is commonly meant the concentration that produces a half-maximal response. A lower EC50 goes with greater potency.

SMILES strings stand for the structures.

The subject of this test is HT-1080 cells. Briefly: HT-1080 cell viability assay (ferroptosis induced by RSL3, Cell Titer-Glo). The test is classed as cell-based. Particulars: Homo sapiens, HT-1080, 20 h, ferroptosis inducer RSL3, 20 hours, ferroptosis inhibitory activity, Table 2. The procedure, abridged: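 Cells seeded overnight, then co-treated with RSL3 and compound (3-fold, 10-point dilution, top 1.1 μM) for 20 hours. Viability by CellTiter-Glo luminescence, normalized to untreated controls; EC50 from sigmoidal non-linear regression.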
(In general: In ATP-based viability assays light output follows the ATP content of the culture.)
Regarding `COC1(C(F)(F)F)CCN(c2ccc(NC3CC4(CC(N)C4)C3)c(C)n2)CC1` (stereo not drawn) [Compound 498, N2-(6-(4-methoxy-4-(trifluoromethyl)piperidin-1-yl)-2-methylpyridin-3-yl)spiro[3.3]heptane-2,6-diamine], the EC50 was 0.1 to 100 nM.

In turn, `Cc1nc(N2CCCOCC2)ccc1NC1CC2(CC(N)C2)C1` (stereo not drawn) [Compound 499, N2-(2-methyl-6-(1,4-oxazepan-4-yl)pyridin-3-yl)spiro[3.3]heptane-2,6-diamine] showed an EC50 of 100 to 1000 nM.

Turning to `CC[C@@H]1CN(c2ccc(NC[C@H]3CC[C@H](N)CC3)c(C)n2)C[C@H](CC)O1` [Compound 500, N-(((1r,4R)-4-aminocyclohexyl)methyl)-6-((2R,6S)-2,6-diethylmorpholino)-2-methylpyridin-3-amine], the EC50 was in the range of 0.1 to 100 nM.

Turning to `COc1cc(N2C[C@@H](C)O[C@@H](C)C2)ncc1NC1CC2(CC(N)C2)C1` (stereo partly drawn) [Compound 501, N^2-(6-((2R,6S)-2,6-dimethylmorpholino)-4-methoxypyridin-3-yl)spiro[3.3]heptane-2,6-diamine], the EC50 was 1000 to 10000 nM.

Compound `NC[C@@H]1CCC(Nc2ccc(N3CCC(C(F)(F)F)CC3)cc2)[C@@H](N)C1` (stereo partly drawn) [Compound 503, (2S, 4R)-4-(aminomethyl)-N1-(4-(4-(trifluoromethyl)piperidin-1-yl)phenyl)cyclohexane-1,2-dia mine bis(2,2,2-trifluoroacetate)] registered a concentration giving a half-maximal response (EC50) of 0.1 to 100 nM.

`Cc1nc(N2CC(C)OC(C)C2)ccc1NC1CC2CC1CC2N` (stereo not drawn) [Compound 504, N2-(6-(2,6-dimethylmorpholino)-2-methylpyridin-3-yl)bicyclo[2.2.1]heptane-2,5-diamine] came in with an EC50 of 0.1 to 100 nM.

`NC1CC2(C1)CC(Nc1ccc(N3CCN(CC(F)(F)F)CC3)cc1)C2` (stereo not drawn) [Compound 505, N2-(4-(4-(2,2,2-trifluoroethyl)piperazin-1-yl)phenyl)spiro[3.3]heptane-2,6-diamine]: the EC50 lay in the range of 0.1 to 100 nM.

Compound `CC(C)(C)OC(=O)N[C@H]1CC[C@H](CNc2ccc(N3CC4CC(C3)O4)c(F)c2)CC1` [Compound 506, tert-butyl ((1r,4r)-4-(((4-(6-oxa-3-azabicyclo[3.1.1]heptan-3-yl)-3-fluorophenyl)amino)methyl)cyclohexyl) carbamate] yielded an EC50 of 0.1 to 100 nM.

Compound `Cc1nc(N2CCC3(CCOCC3)C2)ccc1NC1CC2(CC(N)C2)C1` (stereo not drawn) [Compound 507, N2-(2-methyl-6-(8-oxa-2-azaspiro[4.5]decan-2-yl)pyridin-3-yl)spiro[3.3]heptane-2,6-diamine] had an EC50 of 100 to 1000 nM.

Compound `Cc1nc(N2CC[C@H]3OCCC[C@@H]3C2)ccc1NC1CC2(CC(N)C2)C1` (stereo partly drawn) [Compound 508, N2-(6-((4aR,8aR)-hexahydro-2H-pyrano [3,2-c]pyridin-6 (5H)-yl)-2-methylpyridin-3-yl)spiro[3. 3]heptane-2,6-diamine] had an EC50 of 0.1 to 100 nM.

`Cc1nc(N2CCC3(CCCCO3)CC2)ccc1NC1CC2(CC(N)C2)C1` (stereo not drawn) [Compound 509, N2-(2-methyl-6-(1-oxa-9-azaspiro [5.5]undecan-9-yl)pyridin-3-yl)spiro[3.3]heptane-2,6-diamine] showed an EC50 of 0.1 to 100 nM.

`COC1(C(F)(F)F)CCN(c2ccc(NC[C@H]3CC[C@H](N)CC3)c(C)n2)CC1` [Compound 510, N-(((1r,4r)-4-aminocyclohexyl)methyl)-6-(4-methoxy-4-(trifluoromethyl)piperidin-1-yl)-2-methylpyridin-3-amine] yielded an EC50 of 0.1 to 100 nM.

`COc1nc(N2C[C@@H](C)O[C@@H](C)C2)ccc1NC[C@H]1CC[C@H](N)CC1` [Compound 511, N-(((1r,4R)-4-aminocyclohexyl)methyl)-6-((2S,6R)-2,6-dimethylmorpholino)-2-methoxypyridin-3-amine] displayed an EC50 of 0.1 to 100 nM.

As to `Cc1nc(N2CC(C)OC(C)C2)ccc1NCC1CC2(CC(N)C2)C1` (stereo not drawn) [Compound 512, N-((6-aminospiro [3.3]heptan-2-yl)methyl)-6-(2,6-dimethylmorpholino)-2-methylpyridin-3-amine], the EC50 was in the range of 0.1 to 100 nM.

`CC1(C)CN(c2ccc(NC[C@H]3CC[C@H](N)CC3)cc2F)CC(C)(C)O1` [Compound 513, N-(((1r,4r)-4-aminocyclohexyl)methyl)-3-fluoro-4-(2,2,6,6-tetramethylmorpholino)aniline] came in with an EC50 of 0.1 to 100 nM.

In turn, `Cc1nc(N2CC(C)(C)OC(C)(C)C2)ccc1NC[C@H]1CC[C@H](N)CC1` [Compound 514, N-(((1r,4r)-4-aminocyclohexyl)methyl)-2-methyl-6-(2,2,6,6-tetramethylmorpholino)pyridin-3-amine] gave an EC50 of 0.1 to 100 nM.

As for `Cc1nc(N2CC(C)(C)OC(C)(C)C2)ccc1NC1CC2(CC(N)C2)C1` (stereo not drawn) [Compound 515, N2-(2-methyl-6-(2,2,6,6-tetramethylmorpholino)pyridin-3-yl)spiro[3.3]heptane-2,6-diamine], the half-maximal effective concentration (EC50) was 0.1 to 100 nM.

`Cc1nc(N2CC(C)OC(C)C2)ccc1NCC12CC3CC(C1)C(N)C(C3)C2` (stereo not drawn) [Compound 516A, N-(((1s,4r)-4-aminoadamantan-1-yl)methyl)-6-(2,6-dimethylmorpholino)-2-methylpyridin-3-amine] registered an EC50 of 0.1 to 100 nM.

The compound `Cc1nc(N2CCOCC2)ccc1NC1C2CC3CC1CC(N)(C3)C2` (stereo not drawn) [Compound 517, N4-(2-methyl-6-morpholinopyridin-3-yl)adamantane-1,4-diamine] registered an EC50 of 100 to 1000 nM.

For the compound `Cc1nc(N2CCOC(C)C2)ccc1NC1C2CC3CC1CC(N)(C3)C2` (stereo not drawn) [Compound 518, N4-(2-methyl-6-(2-methylmorpholino)pyridin-3-yl)adamantane-1,4-diamine], the EC50 was 0.1 to 100 nM.

For `Cc1nc(N2CC(C)OC(C)C2)c(F)cc1NC1C2CC3CC1CC(N)(C3)C2` (stereo not drawn) [Compound 519, N4-(6-(2,6-dimethylmorpholino)-5-fluoro-2-methylpyridin-3-yl)adamantane-1,4-diamine], the EC50 was 0.1 to 100 nM.

Regarding `Cc1nc(N2CCOC(C)C2)ccc1NC1C2CC3CC1CC(CN)(C3)C2` (stereo not drawn) [Compound 520, N-(5-(aminomethyl)adamantan-2-yl)-2-methyl-6-(2-methylmorpholino)pyridin-3-amine], the EC50 was in the range of 0.1 to 100 nM.

For the compound `Cc1nc(N2CC3COCC3C2)ccc1NC1CC2(CC(N)C2)C1` (stereo not drawn) [Compound 521], the EC50 lay within 0.1 to 100 nM.

Compound `CC1CC(C)CN(c2ccc(NC[C@H]3CC[C@H](N)CC3)cc2)C1` (stereo partly drawn) [Compound 522, N-(((1r,4r)-4-aminocyclohexyl)methyl)-4-(3,5-dimethylpiperidin-1-yl)aniline] came in with an EC50 of 0.1 to 100 nM.

Regarding `Cc1nc(N2C3COCC2C3)ccc1NC1CC2(CC(N)C2)C1` (stereo not drawn) [Compound 523, N2-(6-(3-oxa-6-azabicyclo[3.1.1]heptan-6-yl)-2-methylpyridin-3-yl)spiro[3.3]heptane-2,6-diamine], the EC50 lay in the range of 1000 to 10000 nM.

In the case of `Cc1nc(N2CC3CC(C2)O3)ccc1NC1CC2(CC(N)C2)C1` (stereo not drawn) [Compound 524, N2-(6-(6-oxa-3-azabicyclo[3.1.1]heptan-3-yl)-2-methylpyridin-3-yl)spiro[3.3]heptane-2,6-diamine], the EC50 lay in the range of 100 to 1000 nM.

Regarding `CC1CN(c2ccc(NC[C@H]3CC[C@H](N)CC3)cc2)CC(C)N1C` (stereo partly drawn) [Compound 525, N-(((1r,4r)-4-aminocyclohexyl)methyl)-4-(3,4,5-trimethylpiperazin-1-yl)aniline], the EC50 was 100 to 1000 nM.

The values are drawn from patent publication US20240360114A1 (SIRONAX LTD., priority 2021, published 2024).
